Data taken from US9050326B2, “Amido derivatives-contained pharmaceutical composition” (priority 2008, dated 2015).
Converted amounts (≈) assume the structure as drawn.

Tests used:
[1] = Solubility, dissolution test of the 15th Edition of the Japanese Pharmacopoeia; assay type: physicochemical; conditions: thermodynamic from solid, without storage, read-out: Solubility of compound A
[2] = Chemical stability against heat in manufacturing a solid dispersion with a twin screw extruder (melting method); assay type: physicochemical
Source text: Salts, a clathrate, a solid dispersion, and the like are known as methods of improving the solubility of a slightly water-soluble drug. However, with respect to compound A per se, it is expected that a salt of compound A is desalted, even if the solubility is improved, and that the inclusion ability of cyclodextrin, which is commonly used as a host of clathrates, is low.

solubility [1]: 2 µg/mL (≈ 4.14 µM) | Chemical stability against heat [2]: low chemical stability against heat
SMILES: Cc1cccc(C)c1N(CC(=O)Nc1ccc(-c2ncon2)cc1)C(=O)C1CCS(=O)(=O)CC1 [Compound A, N-(2,6-Dimethylphenyl)-N-(2-{[4-(1,2,4-oxadiazol-3-yl)phenyl]amino}-2-oxoethyl)tetrahydro-2H-thiopyran-4-carboxamide 1,1-dioxide]
